Assay results reported in US11008346B2, “Beta-lactamase inhibitors” (priority 2014, dated 2021).

Legend:
[1] = tested on: E. coli ESBL4 expressing CTX-M-15; experiment: broth microdilution MIC, E. coli CTX-M-15; assay type: cell-based; conditions: for MIC of exemplary compounds in presence of fixed β-lactams, E. coli ESBL4 CTX-M-15: Fixed CAZ (ceftazidime) 4 μg/mL
Excerpt: (§1) To determine the ability of test compounds to potentiate the inhibition of the growth of bacterial strains that produce beta-lactamase enzymes, classic cell based broth microdilution MIC assays were employed. Six bacteria strains producing beta-lactamase enzymes were used: E. coli expressing the Class A Extended Spectrum Beta-Lactamase (ESBL) CTX-M-15, E. cloacae expressing the Class C P99, K. pneumoniae expressing the Class A carbapenemase KPC-3, P. aeruginosa expressing the Class B carbapenemase VIM-2, K pneumoniae expressing the class A carbapenemase KPC-2 and the class B carbapenemase VIM-4, and S. aureus producing the Class A penicillinase PC-1. The assay was conducted in Cation Adjusted Mueller Hinton Broth (CAMHB, BD #212322, BD Diagnostic Systems, Sparks, Md.). Bacteria strains were grown for 3-5 hours in CAMBH broth. Test compounds were added to a microtiter plate in 2-fold serial dilutions in CAMHB in a final concentration range of 32 μg/mL to 0.25 μg/ml. An overlay of CAMHB containing a Beta-lactam was added to the compounds at a final static concentration of 4 μg/ml. […] In addition to the titration of test compounds the MICs of a panel of control beta-lactams is also tested to ensure the strains are behaving consistently from test to test. Once the test compound and antibiotics are added the plates can be inoculated according to CLSI broth microdilution method. After inoculation the plates are incubated for 16-20 hours at 37° C., then the Minimal Inhibitory Concentration (MIC) of the test compound is determined visually.
(§2) Using the methodology described above, examples of the current invention were evaluated for their ability to inhibit the growth of β-lactamase-producing bacteria in the presence of a β-lactam antibiotic.
(§3) Representative results are shown in Table 4 where A represents an MIC of the fixed β-lactam antibiotic in the presence of >32 µg/mL of a β-lactamase inhibitor of exemplary compounds, B represents the MIC in the presence of between 8 and 32 µg/mL of a β-lactamase inhibitor of exemplary compounds, and C represents the MIC in the presence of ≤4 µg/mL of a β-lactamase inhibitor of exemplary compounds. NT=Not Tested.

[2] = tested on: E. cloacae 144200 expressing Class C P99 AmpC; experiment: broth microdilution MIC, E. cloacae P99; assay type: cell-based; conditions: for MIC of exemplary compounds in presence of fixed β-lactams, E. cl. 144200 p99 AmpC: Fixed CAZ (ceftazidime) 4 μg/mL
Excerpt: as §1, §2, §3

[3] = biological target: T1, VIM-2 metallo β-lactamase (Pseudomonas aeruginosa, UniProt Q9K2N0); experiment: β-lactamase enzyme inhibition, VIM-2; assay type: biochemical; conditions: Nitrocefin 100 μM, 486 nm; 15 min at 37° C. preincubation; read-out: IC50 VIM-2 (Class B)
T1 construct: made in house; host or cells: E. coli BL21(DE3)
Method: For VIM-2 metallo β-lactamase, the procedure was identical with the following exceptions, first the protein was not pH adjusted to pH 5 with 50 mM sodium acetate. Second, the chromatography step was changed to a 5 ml Q sepharose anion exchange column pre-equilibrated with 50 mM Hepes pH 7.5, and elution of the protein was achieved by a linear gradient of NaCl (0-600 mM). Finally, the VIM-2 purification required a second run (3rd step) on the Q sepharose anion exchange column to achieve acceptable purity (>90%).
(§4) An equal volume of diluted enzyme stock was added, and the plates were incubated at 37° C. for 15 min. Nitrocefin was used as substrate for p99 AmpC, VIM-2 and OXA-1 and dispensed into each well at a final concentration of 100 μM. Absorbance at 486 nm was immediately monitored for 10 min using a Biotek Powerwave XS2 microplate spectrophotometer using the GEN5 software package (Biotek Instruments, Winooski Vt.). In an analogous fashion, imipenem was used as substrate for KPC-2 and Cefotaxime was used for SHV-5, while changes in absorbance upon hydrolysis of the β-lactam ring were monitored at 300 nm and 260 nm respectively in UV-transparent 96-well microtiter assay plates. Maximum rates of hydrolysis were compared to those in control wells (without inhibitors), and percentages of enzyme inhibition were calculated for each concentration of inhibitor. The concentration of inhibitor needed to reduce the initial rate of hydrolysis of substrate by 50% (IC50) was calculated as the residual activity of β-lactamase at 486 nm using GraFit version 7 kinetics software package (Erithacus Software, Surrey, UK).
(§5) Using the methodology described above, examples of the current invention were evaluated for their ability to inhibit β-lactamase enzymes from all four Ambler classifications (A through D). […] NT=Not tested.

SHV-5 β-lactamase = biological target: T2, SHV-5 β-lactamase (Klebsiella pneumoniae, UniProt P0A3M1); experiment: β-lactamase enzyme inhibition, SHV-5; assay type: biochemical
T2 construct: made in house; host or cells: E. coli BL21(DE3)
T2 sequence (P0A3M1 22-286): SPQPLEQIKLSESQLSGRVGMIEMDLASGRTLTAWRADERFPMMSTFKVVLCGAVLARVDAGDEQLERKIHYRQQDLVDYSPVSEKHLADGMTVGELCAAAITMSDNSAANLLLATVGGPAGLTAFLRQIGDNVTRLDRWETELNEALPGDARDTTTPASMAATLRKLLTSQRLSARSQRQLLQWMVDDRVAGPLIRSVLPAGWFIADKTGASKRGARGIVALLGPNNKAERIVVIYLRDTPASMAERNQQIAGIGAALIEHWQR
Method: (§6) For SHV-5, Kpc-2, p99AmpC and OXA-1 β-lactamases, E. coli BL21(DE3) bacterial cells carrying expression plasmids (expressed as native untagged proteins) for the individual β-lactamases were grown in 1 L of Superbroth (Teknova Inc. Hollister, Calif.) supplemented with 100 μg/ml kanamycin selection and 1×5052 (0.5% glycerol, 0.05% glucose and 0.2% α-lactose) at 35° C. for 18-20 hours. Cells were harvested by centrifugation (4,000×g, 4° C., 20 min), resuspended in 50 ml of 10 mM HEPES pH 7.5 ( 1/20 of the initial volume). The cells were lysed by sonication (5 pulses of 45 seconds) at 45 W on ice. The lysates were clarified by centrifugation at 10,000×g for 40 minutes at 4° C. Samples were diluted 5-fold in 50 mM sodium acetate pH 5.0, stored overnight at 4° C., after which they were centrifuged at 10,000×g for 30 minutes to clarify, and filtered through 0.45 μm filters. The samples were loaded onto a 5 ml Capto S sepharose cation exchange column (GE Healthcare) pre-equilibrated with 50 mM sodium acetate pH 5.0. The column was washed with 5 column volumes of 50 mM sodium acetate pH 5.0 to wash out unbound protein and a linear gradient of NaCl (0 to 500 mM) was used to elute the protein (over 16 CV) from the column. Fractions were assayed for […] activity using Centa (Calbiochem, Gibbstown, N.J.) or Nitrocefin (EMD Millipore chemicals, Darmstadt, Germany) as a reporter β-lactamase substrate for activity in the isolated fractions. Active fractions were pooled, concentrated and further purified by gel filtration chromatography on a Superdex 75 prep grade gel filtration column (GE Healthcare, Piscataway, N.J.) pre-equilibrated in 50 mM Hepes pH 7.5, 150 mM NaCl. Active fractions were pooled, concentrated, and quantitated by BCA protein determination (Thermo Scientific, Rockford, Ill.), dialyzed into PBS and frozen at −80° C. in 20% glycerol until use.
as §4, §5

[4] = tested on: K. pneumoniae A-1797 expressing KPC-2 and VIM-4; experiment: broth microdilution MIC, K. pneumoniae KPC-2 and VIM-4; assay type: cell-based; conditions: Fixed Mero (meropenem) 4 μg/mL
Excerpt: as §1, §2, §3

[5] = tested on: K. pneumoniae 156319 expressing KPC-3; experiment: broth microdilution MIC, K. pneumoniae KPC-3; assay type: cell-based; conditions: Fixed Mero (meropenem) 4 μg/mL
Excerpt: as §1, §2, §3

p99 AmpC β-lactamase = biological target: T3, p99 AmpC β-lactamase (Enterobacter cloacae, UniProt P05364); experiment: β-lactamase enzyme inhibition, p99 AmpC; assay type: biochemical
T3 construct: made in house; host or cells: E. coli BL21(DE3)
T3 sequence (P05364 21-381): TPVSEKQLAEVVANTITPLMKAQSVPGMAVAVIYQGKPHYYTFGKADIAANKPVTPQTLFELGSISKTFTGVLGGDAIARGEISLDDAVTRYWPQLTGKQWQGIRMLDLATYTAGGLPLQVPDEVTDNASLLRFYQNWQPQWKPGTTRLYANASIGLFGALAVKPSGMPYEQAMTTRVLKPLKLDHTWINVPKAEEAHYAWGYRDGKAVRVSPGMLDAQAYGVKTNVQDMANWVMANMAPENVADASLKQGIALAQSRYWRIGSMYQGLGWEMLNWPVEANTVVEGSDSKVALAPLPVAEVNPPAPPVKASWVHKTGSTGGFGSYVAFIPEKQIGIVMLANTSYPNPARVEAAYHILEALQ
Method: as §6, §4
Using the methodology described above, examples of the current invention were evaluated for their ability to inhibit β-lactamase enzymes from all four Ambler classifications (A through D).

KPC-2 β-lactamase = biological target: T4, KPC-2 β-lactamase (Klebsiella pneumoniae, UniProt Q9F663); experiment: β-lactamase enzyme inhibition, KPC-2; assay type: biochemical; conditions: imipenem substrate, 300 nm; 15 min at 37° C. preincubation; read-out: IC50 KPC-2 (Class A)
T4 construct: made in house; host or cells: E. coli BL21(DE3)
T4 sequence (Q9F663 25-293, looked up): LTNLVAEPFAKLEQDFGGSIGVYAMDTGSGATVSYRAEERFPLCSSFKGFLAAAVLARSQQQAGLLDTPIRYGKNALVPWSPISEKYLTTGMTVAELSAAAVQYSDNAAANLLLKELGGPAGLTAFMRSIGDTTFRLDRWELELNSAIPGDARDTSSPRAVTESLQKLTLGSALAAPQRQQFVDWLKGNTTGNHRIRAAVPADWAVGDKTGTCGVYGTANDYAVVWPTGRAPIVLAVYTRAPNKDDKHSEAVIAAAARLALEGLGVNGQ
Method: as §6, §4, §5

SMILES: CC(C)(O/N=C(\C(=O)N[C@@H]1C(=O)N2C(C(=O)[O-])=C(C[n+]3ccccc3)CS[C@H]12)c1csc(N)n1)C(=O)O [Ceftazidime, ceftazidime, reference compound]
- MIC ([1]; Escherichia coli, read-out: MIC alone): > 128 µg/mL
- MIC alone ([2]; partner antibiotic alone, E. cloacae expressing Class C P99): 128 µg/mL

SMILES: NS(=O)(=O)CCCC(=O)N[C@H]1Cc2cccc(C(=O)O)c2OB1O [Example 53, (R)-2-Hydroxy-3-(4-sulfamoyl-butyrylamino)-3,4-dihydro-2H-benzo[e][1,2]oxaborinine-8-carboxylic acid]
- IC50 [3]: 10000 to 100000 nM
- IC50 (SHV-5 β-lactamase): < 100 nM
- MIC of exemplary compounds in presence of fixed β-lactams, K.P. A-1797 KPC-2 VIM-4 [4]: B (B represents the MIC in the presence of between 8 and 32 g/mL of a β-lactamase inhibitor)
- MIC of exemplary compounds in presence of fixed β-lactams, K.P. 156319 KPC-3 [5]: C (C represents the MIC in the presence of ≤4 g/mL of a β-lactamase inhibitor)
- MIC of exemplary compounds in presence of fixed β-lactams, E. coli ESBL4 CTX-M-15 [1]: C (C represents the MIC in the presence of ≤4 g/mL of a β-lactamase inhibitor)
- MIC of exemplary compounds in presence of fixed β-lactams, E. cl. 144200 p99 AmpC [2]: C (C represents the MIC in the presence of ≤4 g/mL of a β-lactamase inhibitor)
- IC50 (p99 AmpC β-lactamase): < 100 nM
- IC50 (KPC-2 β-lactamase): < 100 nM

SMILES: CS(=O)(=O)NCCCC(=O)N[C@H]1Cc2cccc(C(=O)O)c2OB1O [Example 57, (R)-2-Hydroxy-3-(4-methanesulfonylamino-butyrylamino)-3,4-dihydro-2H-benzo[e][1,2]oxaborinine-8-carboxylic acid]
- IC50 [3]: 1000 to 10000 nM
- IC50 (SHV-5 β-lactamase): < 100 nM
- MIC of exemplary compounds in presence of fixed β-lactams, K.P. A-1797 KPC-2 VIM-4 [4]: B (B represents the MIC in the presence of between 8 and 32 g/mL of a β-lactamase inhibitor)
- MIC of exemplary compounds in presence of fixed β-lactams, K.P. 156319 KPC-3 [5]: C (C represents the MIC in the presence of ≤4 g/mL of a β-lactamase inhibitor)
- MIC of exemplary compounds in presence of fixed β-lactams, E. coli ESBL4 CTX-M-15 [1]: C (C represents the MIC in the presence of ≤4 g/mL of a β-lactamase inhibitor)
- IC50 (p99 AmpC β-lactamase): < 100 nM
- IC50 (KPC-2 β-lactamase): < 100 nM

SMILES: CNS(=O)(=O)CCCC(=O)N[C@H]1Cc2cccc(C(=O)O)c2OB1O [Example 58, (R)-2-Hydroxy-3-(4-methylsulfamoyl-butyrylamino)-3,4-dihydro-2H-benzo[e][1,2]oxaborinine-8-carboxylicacid]
- IC50 [3]: 1000 to 10000 nM
- IC50 (SHV-5 β-lactamase): < 100 nM
- MIC of exemplary compounds in presence of fixed β-lactams, K.P. A-1797 KPC-2 VIM-4 [4]: B (B represents the MIC in the presence of between 8 and 32 g/mL of a β-lactamase inhibitor)
- MIC of exemplary compounds in presence of fixed β-lactams, K.P. 156319 KPC-3 [5]: C (C represents the MIC in the presence of ≤4 g/mL of a β-lactamase inhibitor)
- MIC of exemplary compounds in presence of fixed β-lactams, E. coli ESBL4 CTX-M-15 [1]: C (C represents the MIC in the presence of ≤4 g/mL of a β-lactamase inhibitor)
- IC50 (p99 AmpC β-lactamase): < 100 nM
- IC50 (KPC-2 β-lactamase): < 100 nM

SMILES: CS(=O)(=O)CCCC(=O)N[C@H]1Cc2cccc(C(=O)O)c2OB1O [Example 59, (R)-2-Hydroxy-3-(4-methanesulfonyl-butyrylamino)-3,4-dihydro-2H-benzo[e][1,2]oxaborinine-8-carboxylic acid]
- IC50 [3]: 1000 to 10000 nM
- IC50 (SHV-5 β-lactamase): < 100 nM
- MIC of exemplary compounds in presence of fixed β-lactams, K.P. A-1797 KPC-2 VIM-4 [4]: B (B represents the MIC in the presence of between 8 and 32 g/mL of a β-lactamase inhibitor)
- MIC of exemplary compounds in presence of fixed β-lactams, K.P. 156319 KPC-3 [5]: C (C represents the MIC in the presence of ≤4 g/mL of a β-lactamase inhibitor)
- MIC of exemplary compounds in presence of fixed β-lactams, E. coli ESBL4 CTX-M-15 [1]: C (C represents the MIC in the presence of ≤4 g/mL of a β-lactamase inhibitor)
- IC50 (p99 AmpC β-lactamase): < 100 nM
- IC50 (KPC-2 β-lactamase): < 100 nM

SMILES: CC(O)CCC(=O)N[C@H]1Cc2cccc(C(=O)O)c2OB1O (stereo partly drawn) [Example 63, (R)-2-Hydroxy-3-(4-hydroxy-pentanoylamino)-3,4-dihydro-2H-benzo[e][1,2]oxaborinine-8-carboxylic acid]
- MIC of exemplary compounds in presence of fixed β-lactams, K.P. A-1797 KPC-2 VIM-4 [4]: B (B represents the MIC in the presence of between 8 and 32 g/mL of a β-lactamase inhibitor)
- MIC of exemplary compounds in presence of fixed β-lactams, K.P. 156319 KPC-3 [5]: C (C represents the MIC in the presence of ≤4 g/mL of a β-lactamase inhibitor)
- MIC of exemplary compounds in presence of fixed β-lactams, E. coli ESBL4 CTX-M-15 [1]: C (C represents the MIC in the presence of ≤4 g/mL of a β-lactamase inhibitor)
- MIC of exemplary compounds in presence of fixed β-lactams, E. cl. 144200 p99 AmpC [2]: C (C represents the MIC in the presence of ≤4 g/mL of a β-lactamase inhibitor)

SMILES: O=C(Cc1ccncc1)N[C@H]1Cc2cccc(C(=O)O)c2OB1O [Example 65, (R)-2-Hydroxy-3-(2-pyridin-4-yl-acetylamino)-3,4-dihydro-2H-benzo[e][1,2]oxaborinine-8-carboxylic acid]
- IC50 (SHV-5 β-lactamase): < 100 nM
- MIC of exemplary compounds in presence of fixed β-lactams, K.P. A-1797 KPC-2 VIM-4 [4]: C (C represents the MIC in the presence of ≤4 g/mL of a β-lactamase inhibitor)
- MIC of exemplary compounds in presence of fixed β-lactams, K.P. 156319 KPC-3 [5]: C (C represents the MIC in the presence of ≤4 g/mL of a β-lactamase inhibitor)
- MIC of exemplary compounds in presence of fixed β-lactams, E. coli ESBL4 CTX-M-15 [1]: C (C represents the MIC in the presence of ≤4 g/mL of a β-lactamase inhibitor)
- MIC of exemplary compounds in presence of fixed β-lactams, E. cl. 144200 p99 AmpC [2]: C (C represents the MIC in the presence of ≤4 g/mL of a β-lactamase inhibitor)
- IC50 (p99 AmpC β-lactamase): < 100 nM
- IC50 (KPC-2 β-lactamase): < 100 nM
